Data set [1] in a line: PK studies: brain and plasma levels by LC-MS/MS. In kind it is in vivo, mice.
The target in another data set is T1, KCC2 (Homo sapiens, UniProt Q9H2X9).
T1 construct: expressed in transfected cells; host or cells: HEK-293 (ATCC CRL-1573)
T1 sequence (Q9H2X9 1-1116 isoform Q9H2X9-2): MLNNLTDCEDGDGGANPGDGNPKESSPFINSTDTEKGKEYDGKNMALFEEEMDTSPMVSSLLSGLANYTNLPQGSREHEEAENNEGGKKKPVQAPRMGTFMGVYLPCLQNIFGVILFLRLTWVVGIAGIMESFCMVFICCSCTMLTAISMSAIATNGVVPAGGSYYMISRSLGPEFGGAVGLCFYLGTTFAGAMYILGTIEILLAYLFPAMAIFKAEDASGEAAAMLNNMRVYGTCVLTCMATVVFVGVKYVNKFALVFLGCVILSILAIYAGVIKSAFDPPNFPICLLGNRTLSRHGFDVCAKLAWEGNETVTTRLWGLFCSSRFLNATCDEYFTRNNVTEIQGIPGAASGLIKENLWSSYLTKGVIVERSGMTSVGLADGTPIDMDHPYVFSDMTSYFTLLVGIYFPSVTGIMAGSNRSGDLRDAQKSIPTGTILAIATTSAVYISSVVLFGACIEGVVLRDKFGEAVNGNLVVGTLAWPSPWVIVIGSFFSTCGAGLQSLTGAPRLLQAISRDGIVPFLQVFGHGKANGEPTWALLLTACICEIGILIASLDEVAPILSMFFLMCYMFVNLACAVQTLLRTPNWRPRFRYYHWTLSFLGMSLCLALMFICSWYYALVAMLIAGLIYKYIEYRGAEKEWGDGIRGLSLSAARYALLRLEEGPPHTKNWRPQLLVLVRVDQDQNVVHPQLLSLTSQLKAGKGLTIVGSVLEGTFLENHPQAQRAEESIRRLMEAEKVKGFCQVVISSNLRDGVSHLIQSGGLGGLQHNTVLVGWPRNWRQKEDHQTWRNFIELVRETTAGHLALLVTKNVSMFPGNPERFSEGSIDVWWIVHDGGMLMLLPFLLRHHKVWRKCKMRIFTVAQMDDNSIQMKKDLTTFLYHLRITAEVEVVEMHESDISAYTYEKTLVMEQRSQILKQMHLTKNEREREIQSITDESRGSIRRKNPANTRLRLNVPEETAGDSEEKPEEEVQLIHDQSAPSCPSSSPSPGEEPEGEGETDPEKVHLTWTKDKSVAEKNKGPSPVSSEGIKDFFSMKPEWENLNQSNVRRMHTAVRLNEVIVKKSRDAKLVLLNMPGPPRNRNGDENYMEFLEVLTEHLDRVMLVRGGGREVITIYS
Description: Cell surface biotinylation of KCC2 in HEK-293 cells. The format is cell-based. The following applies: 15 min. As to the method:
Cell Culture and biotinylation. HEK-293 cells were purchased from ATCC (CRL-1573) and transfected with human KCC2 and GFP expression plasmids using Lipofectamine 2000. Cells were utilized for experimentation 48-72 h following transfection. Cells were biotinylated at 4° C. using NHS-Biotin. Following lysis and purification on immobilized avidin beads, cell surface and total fractions were subject to immunoblotting as outlined previously (Conway et al., 2017, supra).
The reliability of the biotinylation procedure was assessed via immunoblotting with antibodies against the cytosolic protein actin. Actin was present in the total lysates but was absent from the surface fractions (FIG. 2C).

The next data set concerns hippocampus. As to the kind of experiment: Neuronal cell death in the hippocampus of mice treated with diazepam. In kind it is in vivo. The following applies: Compound A and diazepam, compared to diazepam alone.

Each structure is given as a SMILES string.

As for `C[C@@H]1CN(c2nc3c(c(Nc4ccc(C5CCCCC5)cc4)n2)COC3)CCO1` [Compound A, (R)—N-(4-cyclohexylphenyl)-2-(2-methylmorpholino)-5,7-dihydrofuro[3,4-d]pyrimidin-4-amine], the “time by which accumulation in the brain was evident” value in data set [1] (25 mg/kg IV bolus, mice) is at most 30 min. Besides, in data set [1] (50 mg/kg SC), the “time at which accumulation in brain was detected” value was 30 min and the “time of maximal concentration in brain” value is 4 h. For the same compound, the “level of KCC2 on the plasma membrane (surface/total)” value on KCC2 (0.3 μM) was 94.5±8.4 % of control. Besides, at KCC2 (3 μM), the “level of KCC2 on the plasma membrane (surface/total)” value is reported as 104.7±8.4 % of control. The “neuronal cell death in the hippocampus” value in the data set with hippocampus is reported as “significantly reduced”.

(Values after patent publication US20260191874A1, “FUSED AMINO PYRIMIDINE COMPOUNDS FOR TREATMENT OF AUTISM SPECTRUM DISORDER, OBSESSIVE COMPULSIVE DISORDER AND TICS” (Ovid Therapeutics Inc., priority 2024, published 2026).)
